Assay results: ChEMBL document CHEMBL4418495, “Entpd5 inhibitors” (2012)
Active and inactive are the calls of the source. The rule behind the calls is not given here.

Experiments:
[1] = molecular target: T1, Nucleoside diphosphate phosphatase ENTPD5 (Homo sapiens) (UniProt O75356); test: Inhibition of human recombinant ENTPD5 expressed in insect cells assessed as reduction in UDP hydrolysis at 1 uM incubated for 1 hr in presence of UMP, GTP and ATP by Escherichia coli UMP kinase pyrH catalyzed UMP phosphorylation coupled luciferase assay
T1 sequence (whole entry): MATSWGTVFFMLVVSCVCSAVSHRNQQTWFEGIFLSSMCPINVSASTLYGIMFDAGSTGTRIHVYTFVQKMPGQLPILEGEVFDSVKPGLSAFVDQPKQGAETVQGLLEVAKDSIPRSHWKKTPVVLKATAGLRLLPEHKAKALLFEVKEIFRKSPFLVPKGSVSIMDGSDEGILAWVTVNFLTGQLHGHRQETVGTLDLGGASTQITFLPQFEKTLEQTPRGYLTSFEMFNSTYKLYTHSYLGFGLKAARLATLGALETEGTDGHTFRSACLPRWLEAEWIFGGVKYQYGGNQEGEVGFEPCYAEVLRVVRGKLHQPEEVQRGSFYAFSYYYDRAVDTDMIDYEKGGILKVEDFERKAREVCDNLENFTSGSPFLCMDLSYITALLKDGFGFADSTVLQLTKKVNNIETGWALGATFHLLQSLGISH

[2] = molecular target: T1, Nucleoside diphosphate phosphatase ENTPD5 (Homo sapiens); test: Inhibition of human recombinant ENTPD5 expressed in insect cells assessed as reduction in UDP hydrolysis up to 10 uM incubated for 1 hr in presence of UMP, GTP and ATP by Escherichia coli UMP kinase pyrH catalyzed UMP phosphorylation coupled luciferase assay
[3] = molecular target: T2, Uridylate kinase (Escherichia coli (strain K12)) (UniProt P0A7E9); test: Inhibition of recombinant Escherichia coli UMP kinase pyrH catalyzed UMP phosphorylation in presence of GTP and ATP incubated for 1 hr by luminescence based assay
T2 sequence (whole entry): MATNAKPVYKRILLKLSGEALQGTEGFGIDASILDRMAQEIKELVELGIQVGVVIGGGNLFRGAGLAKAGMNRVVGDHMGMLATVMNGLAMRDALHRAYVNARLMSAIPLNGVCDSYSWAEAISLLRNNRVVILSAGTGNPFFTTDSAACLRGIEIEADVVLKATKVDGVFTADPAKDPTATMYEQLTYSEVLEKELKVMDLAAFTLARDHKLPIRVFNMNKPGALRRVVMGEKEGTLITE

[4] = molecular target: T1, Nucleoside diphosphate phosphatase ENTPD5 (Homo sapiens); test: Inhibition of human recombinant ENTPD5 expressed in insect cells assessed as reduction in reduction in UDP hydrolysis by measuring inorganic phosphate release incubated for 1 hr by malachite green based assay

Row | SMILES | inhibition [1] | inhibition [2] | inhibition [3] | inhibition [4]
1 | O=C(NC(=S)Nc1ccc(-c2nc3ncccc3o2)cc1)c1ccc(Cl)cc1Cl | Active | Dose-dependent effect | inactive | Active
2 | COC(=O)Cn1c(/C=C2\C(=O)NC(=S)N(c3cccc(Br)c3)C2=O)cc2ccccc21 | Active | Dose-dependent effect | inactive | Active
3 | O=C(Nc1nonc1NC(=O)c1sc2cc(Cl)ccc2c1Cl)c1sc2cc(Cl)ccc2c1Cl | Active | Dose-dependent effect | inactive | Active
4 | CCN1C(=O)/C(=C/c2cccn2C)C(=O)NC1=S | Active | Dose-dependent effect | inactive | Active
5 | O=C1NC(=S)N(c2ccc(Br)cc2)C(=O)/C1=C/c1ccc(-c2ccc(F)cc2)o1 | Active | Dose-dependent effect | inactive | Active
6 | O=C(Cn1cc(/C=C2/C(=O)NC(=O)N(c3ccc4c(c3)OCO4)C2=O)c2ccccc21)Nc1ccccc1 | Active | Dose-dependent effect | inactive | Active
7 | COc1ccc(C(c2cc(C(C)(C)C)c(O)c(C(C)(C)C)c2)N2CCOCC2)cc1 (stereo unspecified) | Active | Dose-dependent effect | inactive | Active
8 | CN(C)c1ccc(/C=C(\NC(=O)c2cccc(F)c2)C(=O)N/N=C/c2cc(Cl)cc([N+](=O)[O-])c2O)cc1 | Active | Dose-dependent effect | inactive | Active
9 | C=CCN(CC(=O)Nc1cc(C)on1)C(=O)CCCC | Active | Dose-dependent effect | inactive | Active
10 | N#CC1=C(N)C(C#N)(C#N)C(c2ccc(OCc3ccc(Cl)cc3)c([N+](=O)[O-])c2)C2CCCC=C12 (stereo unspecified) | Active | Dose-dependent effect | inactive | Active
11 | NC(=O)c1cc2cc(Br)ccc2o/c1=N\c1cc(C(F)(F)F)ccc1N1CCCCC1 | Active | Dose-dependent effect | inactive | Active
12 | Cc1ccc(CNC(=O)c2cc(-c3ccc(Br)s3)nc3ccccc23)o1 | Active | Dose-dependent effect | inactive | Active
13 | C#CCn1cc(/C=C2\C(=O)NC(=S)N(c3ccc(Br)cc3)C2=O)c2ccccc21 | Active | Dose-dependent effect | inactive | Active
14 | O=C1/C(=C/c2ccc(-c3cccc(C(F)(F)F)c3)o2)SC(=S)N1Cc1ccco1 | Active | Dose-dependent effect | inactive | Active
15 | O=C1C=CC(=O)c2c1c(-c1ccccc1)nn2-c1ccccc1 | Active | Dose-dependent effect | inactive | Active
16 | CCN(CC)c1ccc2cc(C(N)=O)/c(=N/c3cccc4ccccc34)oc2c1 | Active | Dose-dependent effect | inactive | Active
17 | CCC(C)(C)C1CCc2c(sc(NC(=O)c3ccoc3C)c2C(N)=O)C1 (stereo unspecified) | Active | Dose-dependent effect | inactive | Active
18 | CN1C(=O)C(=Cc2ccc(Sc3ccccc3)o2)C(=O)N(C)C1=S | Active | Dose-dependent effect | inactive | Active
19 | C=CCN(CC(=O)N(Cc1ccc2c(c1)OCO2)Cc1coc2ccc(Cl)cc2c1=O)C(=O)c1cccc2ccccc12 | Active | Dose-dependent effect | inactive | Active
20 | O=S(=O)(Nc1cc(-c2c(O)ccc3ccccc23)c(O)c2ccccc12)c1ccc(F)cc1 | Active | Dose-dependent effect | inactive | Active

Row | SMILES | inhibition [1] | inhibition [2] | inhibition [3] | inhibition [4]
21 | CC(=O)c1ccc(-c2ccc(/C=C3\C(=O)NC(=S)N(c4ccc(Br)cc4)C3=O)o2)cc1 | Active | Dose-dependent effect | inactive | Active
22 | Cn1cc(C(c2ccc(O)c(O)c2O)c2cn(C)c3ccccc23)c2ccccc21 | Active | Dose-dependent effect | inactive | Active
23 | O=C1NC(=S)NC(=O)C1=Cc1cn(-c2ccccc2)nc1-c1ccccc1 | Active | Dose-dependent effect | inactive | Active
24 | Cc1ccc(C)c(-c2nn(-c3ccccc3)cc2C=C2C(=O)NC(=O)NC2=O)c1 | Active | Dose-dependent effect | inactive | Active
25 | COc1cc(C2Nc3cccc4cccc(c34)N2)cc(I)c1O | Active | Dose-dependent effect | inactive | Active
26 | COc1cc(-c2ccc(/C=C3\SC(=N)N(c4nccs4)C3=O)o2)c(OC)cc1Cl | Active | Dose-dependent effect | inactive | Active
27 | Cc1cc(/C=C2\C(=O)NC(=S)N(c3cccc(Cl)c3)C2=O)c(C)n1-c1ccc(Br)cc1 | Active | Dose-dependent effect | inactive | Active
28 | COc1cccc(NC(=S)Nc2ccc3nc(-c4ccco4)c(-c4ccco4)nc3c2)c1 | Active | Dose-dependent effect | inactive | Active
29 | O=C1S/C(=C/c2ccco2)C(=O)N1c1ccc(Cl)cc1 | Active | Dose-dependent effect | inactive | Active
30 | NC1=C/C(=C2\Nc3cc(N)ccc3S2)C(=O)C=C1 | Active | Dose-dependent effect | inactive | Active
31 | COc1cccc(C(c2cc(C(C)(C)C)c(O)c(C(C)(C)C)c2)N2CCOCC2)c1OC (stereo unspecified) | Active | Dose-dependent effect | inactive | Active
32 | COCCNC(=O)Cn1cc(/C=C2\C(=O)NC(=O)N(C3CCCCC3)C2=O)c2ccccc21 | Active | Dose-dependent effect | inactive | Active
33 | O=S(=O)(c1cccc(C(F)(F)F)c1)N(CCc1csc2nc(-c3ccc4ccccc4c3)cn12)Cc1ccco1 | Active | Dose-dependent effect | inactive | Active
34 | O=S(=O)(Nc1ccccc1F)c1ccc2c(c1)[C@@H]1C=CC[C@@H]1[C@@H](c1ccc(F)cc1)N2 | Active | Dose-dependent effect | inactive | Active
35 | Cc1cccc(Oc2ccc(N3C(=O)C=CC3=O)cc2)c1C | Active | Dose-dependent effect | inactive | Active
36 | O=C(Nc1ccc2c(c1)S(=O)(=O)c1cc(NC(=O)c3cccs3)ccc1-2)c1cccs1 | Active | Dose-dependent effect | inactive | Active
37 | O=C1/C(=C\C=C\c2ccco2)SC(=S)N1Cc1ccccc1 | Active | Dose-dependent effect | inactive | Active
38 | COC(=O)Cn1cc(/C=C2\C(=O)NC(=S)N(c3ccc(Cl)cc3)C2=O)c2ccccc21 | Active | Dose-dependent effect | inactive | Active
39 | O=C1N=C2C=CC(I)=CC2C1NNc1cccc2cccnc12 (stereo unspecified) | Active | Dose-dependent effect | inactive | Active
